In US6337336B1, “Azaindole derivatives for the treatment of depression” (American Home Products Corporation, priority 1999, dated 2002) one finds Ki, Emax and melting point data, which are given here for six compounds.

Data set [1] concerns the target T1, serotonin transporter (Rattus norvegicus, UniProt P31652).
T1 construct: frontal cortical membranes prepared from male Sprague-Dawley rats; from tissue; host or cells: rat frontal cortex membranes (male Sprague-Dawley)
Description: serotonin transporter affinity, 3H-paroxetine binding in rat frontal cortical membranes. Particulars: 3H-paroxetine 0.1 nM, read-out: ST (Ki). The procedure:
A protocol similar to that used by Cheetham et al., Neuropharmacol., 32:737 (1993) was used to determine the affinity of compounds for the serotonin transporter. Briefly, frontal cortical membranes prepared from male Sprague-Dawley rats were incubated with ^3H-paroxetine (0.1 nM) for 60 min at 25° C. All tubes also contained either vehicle, test compound (one to eight concentrations), or a saturating concentration of fluoxetine (10 μM) to define […]. All reactions were terminated by the addition of ice cold Tris buffer followed by rapid filtration using a Tom Tech filtration device to separate bound from free ^3H-paroxetine. Bound radioactivity was quantitated using a Wallac 1205 Beta Plate® counter. Nonlinear regression analysis was used to determine IC50 values which were converted to Ki values using the method set forth in Cheng and Prusoff, Biochem. Pharmacol., 22:3099 (1973) (Ki=IC50/((Radioligand conc.)/(1+KD)).

For data set [2], the target named is T2, 5-HT1A cloned receptor (Homo sapiens, UniProt P08908).
T2 construct: expressed in transfected cells
T2 sequence (P08908 1-422): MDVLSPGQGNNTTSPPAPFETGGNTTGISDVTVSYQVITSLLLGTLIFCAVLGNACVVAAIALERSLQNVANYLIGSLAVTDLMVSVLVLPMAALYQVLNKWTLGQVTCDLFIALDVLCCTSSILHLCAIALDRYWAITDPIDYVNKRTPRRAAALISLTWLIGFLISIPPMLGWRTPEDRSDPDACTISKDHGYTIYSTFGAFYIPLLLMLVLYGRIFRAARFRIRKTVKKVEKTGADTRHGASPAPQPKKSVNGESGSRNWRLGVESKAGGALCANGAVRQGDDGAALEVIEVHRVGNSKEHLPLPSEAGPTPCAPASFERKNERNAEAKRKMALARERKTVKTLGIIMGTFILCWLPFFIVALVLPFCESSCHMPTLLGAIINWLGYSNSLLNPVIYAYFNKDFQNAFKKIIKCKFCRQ
Description: [35S]-GTPγS binding assay. The format is biochemical. As to conditions: relative to maximum agonist response defined by excess 8-OH-DPAT. The procedure: The [^35S]-GTPγS binding assay was similar to that used by Lazareno and Birdsall, Br. J. Pharmacol. 109:1120 (1993). Briefly, 5-HT1A cloned receptor membrane fragments (as used for 5-HT1A receptor binding assays) were stored at −70° C. When needed, membranes were rapidly thawed, centrifuged at 40,000×g for 10 minutes and resuspended at 4° C. for 10 minutes in assay buffer (25 mM HEPES, 3 mM MgCl2, 100 mM NaCl, 1 mM EDTA, 10 uM GDP, […], pH 8.0). These membranes were then incubated for 30 min at 30° C. with [^35S]GTPgS (1 nM) in the presence of vehicle, test compound (one to eight concentrations), or excess 8-OH-DPAT to define maximum agonist response. All reactions were terminated by the addition of ice cold Tris buffer followed by rapid filtration using a Tom Tech® filtration device to separate bound from free [^35S]GTPgS. Agonists produced an increase in the amount of [^35S]GTPgS bound whereas antagonists produced no increase in binding. Bound radioactivity was counted and analyzed as above.
A general note: Binding of GTPγS marks nucleotide exchange on a G protein.

Data set [3] deals with T3, human 5-HT1A receptor (Homo sapiens, UniProt P08908).
T3 sequence (P08908 1-422): T2 sequence (P08908 1-422)
The data set is described as follows: forskolin-stimulated cAMP formation in 5-HT1A.CHO cells (cAMP SPA assay). The format is cell-based. More on the design: expressed in transfected cells. As to conditions: forskolin 1 uM. The procedure: The following assays were performed by incubating the cells with DMEM containing 25 mM HEPES, 5 mM theophylline and 10 μM pargyline for a period of 20 minutes at 37° C. Functional activity was assessed by treating the cells with forskolin (1 uM final concentration) followed immediately by test compound (6 concentrations) for an additional 10 min at 37° C. In separate experiments, 6 concentrations of antagonist were preincubated for 20 min prior to the addition of 10 nM 8-OH-DPAT and forskolin. The reaction was terminated by removal of the media and addition of 0.5 ml ice cold assay buffer. Plates were stored at −20° C. prior to assessment of cAMP formation by a cAMP SPA assay (Amersham).

Data set [4] concerns the target T3, human 5-HT1A receptor. Description: human 5-HT1A receptor binding with [3H]8-OH-DPAT in CHO cell membranes.
Description: A stable Chinese hamster ovary cell line expressing the human 5-HT1A receptor subtype (5-HT1A.CHO cells) was employed throughout this study. Cells were maintained in DMEM supplemented with 10% fetal calf serum, non-essential amino acids and penicillin/ streptomycin.
Cells were grown to 95-100% confluency as a monolayer before membranes were harvested for binding studies. Cells were gently scraped from the culture plates, transferred to centrifuge tubes, and washed twice by centrifugation (2000 rpm for 10 min., 4° C.) in buffer (50 mM Tris; pH 7.5). The resulting pellets were aliquoted and maintained at −80° C. On the day of assay, the cells were thawed on ice, and resuspended in buffer. Studies were conducted using [^3H]8-OH-DPAT as the radioligand. The binding assay was performed in 96 well microtiter plates in a final total volume of 250 μL of buffer. Comparison experiments were performed by using 7 concentrations of unlabelled drug and a final ligand concentration of 1.5 nM. Non-specific binding was determined in the presence of 10 μM 5HT. Saturation analysis was conducted by using [^3H]8-OH-DPAT at concentrations ranging from 0.3-30 nM. Following a 30 minute incubation at room temperature, the reaction was terminated by the addition of ice cold buffer and rapid filtration using a M-96 Brandel Cell Harvester (Gaithersburg, MD) through a GF/B filter presoaked for 30 minutes in 0.5% polyethyleneimine.

Where a name gives a salt, the structure may show the parent alone.

T1 sequence (P31652 whole entry): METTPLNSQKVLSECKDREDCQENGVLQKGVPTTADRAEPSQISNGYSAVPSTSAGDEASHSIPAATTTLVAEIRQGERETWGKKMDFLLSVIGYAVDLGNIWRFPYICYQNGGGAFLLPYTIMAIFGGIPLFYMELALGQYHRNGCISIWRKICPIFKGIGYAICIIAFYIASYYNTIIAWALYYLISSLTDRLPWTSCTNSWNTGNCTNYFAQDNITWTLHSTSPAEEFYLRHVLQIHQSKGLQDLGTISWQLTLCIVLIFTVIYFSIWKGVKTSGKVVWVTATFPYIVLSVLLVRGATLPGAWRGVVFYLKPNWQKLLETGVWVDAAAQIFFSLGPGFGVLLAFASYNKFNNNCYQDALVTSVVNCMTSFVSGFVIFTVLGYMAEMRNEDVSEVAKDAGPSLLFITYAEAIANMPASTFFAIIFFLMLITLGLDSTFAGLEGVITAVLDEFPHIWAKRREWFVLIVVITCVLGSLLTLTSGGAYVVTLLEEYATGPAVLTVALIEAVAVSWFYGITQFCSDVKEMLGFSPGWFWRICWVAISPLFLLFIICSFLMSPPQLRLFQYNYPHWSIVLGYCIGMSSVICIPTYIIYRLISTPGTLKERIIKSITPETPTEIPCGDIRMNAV

Turning to `C1=C(c2c[nH]c3ncccc23)CCN(CCOc2cccc3[nH]ccc23)C1` [Example 2, 3-{1-[2-(1H-Indol-4-yloxy)-ethyl]-1,2,3,6-tetrahydro-pyridin-4-yl}-1H-pyrrolo[2,3-b]pyridine], the Ki in data set [1] was 1.46 nM; in data set [4] it was 10.9 nM. Besides, the values for the Emax in data set [2] and in data set [3] were 9% and 0%, respectively.

As for `C1=C(c2c[nH]c3ncccc23)CCN(CCOc2cccc3ncccc23)C1` [Example 3, 5-{2-[4-(1H-Pyrrolo[2,3-b]pyridin-3-yl)-3,6-dihydro-2H-pyridin-1-yl]-ethoxy}-quinoline], the Ki in data set [1] came to 6.89 nM; in data set [4], 71.6 nM. The Emax in data set [2] and in data set [3] was 0% each time.

In the case of `C1=C(c2c[nH]c3ncccc23)CCN(CCOc2cccc3c2OCCO3)C1` [Example 1, 3-{1-[2-(2,3-Dihydro-benzo[1,4]dioxin-5-yloxy)-ethyl]-1,2,3,6-tetrahydro-pyridin-4-yl}-1H-pyrrolo[2,3-b]pyridine], the Ki amounted to 18 nM in data set [1] and 43.9 nM in data set [4]. In addition, the Emax in data set [2] is 30%.

With `C1=C(c2c[nH]c3ncccc23)CCN(CCOc2cccc3c2OCCO3)C1` (as salt: oxalate) [Example 1, 3-{1-[2-(2,3-Dihydro-benzo[1,4]dioxin-5-yloxy)-ethyl]-1,2,3,6-tetrahydro-pyridin-4-yl}-1H-pyrrolo[2,3-b]pyridine], the melting point lay within 164 to 167 °C.

For the compound `C1=C(c2c[nH]c3ncccc23)CCN(CCOc2cccc3[nH]ccc23)C1` (as salt: oxalate) [Example 2, 3-{1-[2-(1H-Indol-4-yloxy)-ethyl]-1,2,3,6-tetrahydro-pyridin-4-yl}-1H-pyrrolo[2,3-b]pyridine], the melting point was 106 to 109 °C.

Consider `C1=C(c2c[nH]c3ncccc23)CCN(CCOc2cccc3ncccc23)C1` (as salt: oxalate) [Example 3, 5-{2-[4-(1H-Pyrrolo[2,3-b]pyridin-3-yl)-3,6-dihydro-2H-pyridin-1-yl]-ethoxy}-quinoline], for which the melting point is 202 to 205 °C.

As a reminder, the Ki is the dissociation constant of the complex between target and ligand, obtained from inhibition or displacement. In general, Emax refers to the greatest response seen or fitted, relative to the assay's reference. For orientation: melting point means the temperature of the solid-liquid transition.
